Data: patent US10188634B2, “3-(3H-imidazo[4,5-C]pyridin-2-yl)-1 H-pyrazolo[4,3-B]pyridines and therapeutic uses thereof” (Samumed, LLC, priority 2015, dated 2019)

How the values were obtained:
[1] = test system: Wnt activity (Sp5-Luc reporter, human Sp5 promoter with eight TCF/LEF binding sites) in SW480 colon carcinoma cells; assay: Screening assay for Wnt activity: Sp5-Luc reporter gene assay in SW480 cells; format: cell-based; details: for inhibition at 10 µM: read-out: percent inhibition at 10 μM (given for EC50 of >10 μM); for EC50: 10-point dose-response starting from 10 μM, overnight incubation
In short: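 Luminescence (BrightGlo) read after overnight 37 °C exposure of Sp5-Luc SW480 reporter cells, 4,000/well in 1% FBS, to compound dosed 1:3 over 10 points from 10 μM with 0.1% DMSO. Values normalized to DMSO-only cells, fitted with variable-slope four-parameter model; where EC50 exceeds 10 μM, % inhibition at 10 μM reported.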

IL-6 in THP-1 cells = assay: Inhibition of IL-6 in LPS-stimulated THP-1 human monocyte cells (HTRF); format: cell-based; details: IL-6 HTRF; for EC50: 500 ng/mL LPS, 22 hours; for inhibition at 10 µM: LPS, read-out: percent inhibition in brackets (given for EC50 >10 μM)
In short: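 IL-6 was quantified by HTRF ratio after LPS (500 ng/mL, 22 h) stimulation of THP-1 monocytes pretreated 2 h with compound, 10-point 1:3 dilutions from 10 μM, 0.1% DMSO. Cells were held in 1% FBS for 24 h beforehand. Values normalised to DMSO; four-parameter EC50, or % inhibition at 10 μM above that.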

Structure (SMILES)	inhibition at 10 µM [1] [%]	EC50 [1] [µM]	EC50 (IL-6 in THP-1 cells) [µM]	inhibition at 10 µM (IL-6 in THP-1 cells) [%]
CCCCC(=O)Nc1cncc(-c2ccc3[nH]nc(-c4nc5c(-c6ccccn6)cncc5[nH]4)c3n2)c1 [Compound 159, N-(5-(3-(7-(Pyridin-2-yl)-3H-imidazo[4,5-c]pyridin-2-yl)-1H-pyrazolo[4,3-b]pyridin-5-yl)pyridin-3-yl)pentanamide]	1	> 10	> 10	28.2
CCC(=O)Nc1cncc(-c2ccc3[nH]nc(-c4nc5c(N6CCCCC6)cncc5[nH]4)c3n2)c1 [Compound 169, N-(5-(3-(7-(Piperidin-1-yl)-3H-imidazo[4,5-c]pyridin-2-yl)-1H-pyrazolo[4,3-b]pyridin-5-yl)pyridin-3-yl)propionamide]	2.3	> 10	> 10	25.6
CN(C)Cc1cncc(-c2ccc3[nH]nc(-c4nc5c(N6CCCCC6)cncc5[nH]4)c3n2)c1 [Compound 181, N,N-Dimethyl-1-(5-(3-(7-(piperidin-1-yl)-3H-imidazo[4,5-c]pyridin-2-yl)-1H-pyrazolo[4,3-b]pyridin-5-yl)pyridin-3-yl)methanamine]	33.1	> 10	6.01	
Cc1cn(-c2cncc3[nH]c(-c4n[nH]c5ccc(-c6cncc(NC(=O)CC(C)C)c6)nc45)nc23)cn1 [Compound 198, 3-Methyl-N-(5-(3-(7-(4-methyl-1H-imidazol-1-yl)-3H-imidazo[4,5-c]pyridin-2-yl)-1H-pyrazolo[4,3-b]pyridin-5-yl)pyridin-3-yl)butanamide]	1.8	> 10	> 10	14.5
Cc1cn(-c2cncc3[nH]c(-c4n[nH]c5ccc(-c6cncc(NC(=O)C(C)(C)C)c6)nc45)nc23)cn1 [Compound 204, N-(5-(3-(7-(4-methyl-1H-imidazol-1-yl)-3H-imidazo[4,5-c]pyridin-2-yl)-1H-pyrazolo[4,3-b]pyridin-5-yl)pyridin-3-yl)pivalamide]	0	> 10	> 10	24.5
Cc1cn(-c2cncc3[nH]c(-c4n[nH]c5ccc(-c6cncc(CN7CCCC7)c6)nc45)nc23)cn1 [Compound 210, 3-(7-(4-Methyl-1H-imidazol-1-yl)-3H-imidazo[4,5-c]pyridin-2-yl)-5-(5-(pyrrolidin-1-ylmethyl)pyridin-3-yl)-1H-pyrazolo[4,3-b]pyridine]	3.5	> 10	> 10	13
Cc1cn(-c2cncc3[nH]c(-c4n[nH]c5ccc(-c6cncc(NC(=O)C7CCC7)c6)nc45)nc23)cn1 [Compound 217, N-(5-(3-(7-(4-Methyl-1H-imidazol-1-yl)-3H-imidazo[4,5-c]pyridin-2-yl)-1H-pyrazolo[4,3-b]pyridin-5-yl)pyridin-3-yl)cyclobutanecarboxamide]	6.7	> 10	> 10	36.5
CN1CCN(c2cncc3[nH]c(-c4n[nH]c5ccc(-c6cncc(N)c6)nc45)nc23)CC1 [Compound 227, 5-(3-(7-(4-Methylpiperazin-1-yl)-3H-imidazo[4,5-c]pyridin-2-yl)-1H-pyrazolo[4,3-b]pyridin-5-yl)pyridin-3-amine]	16.3	> 10	> 10	38
CC(C)C(=O)Nc1cncc(-c2ccc3[nH]nc(-c4nc5c(N6CCN(C)CC6)cncc5[nH]4)c3n2)c1 [Compound 233, N-(5-(3-(7-(4-Methylpiperazin-1-yl)-3H-imidazo[4,5-c]pyridin-2-yl)-1H-pyrazolo[4,3-b]pyridin-5-yl)pyridin-3-yl)isobutyramide]	6.2	> 10	> 10	36.7
